| SMILES | melting point [°C] |
| --- | --- |
| O=C(NNS(=O)(=O)c1ccccc1)c1cnc2ccccc2c1 | 249 to 250 |
| Cc1c(C#N)ccc(N)c1C#N | 209 to 210 |
| O=C(O)CN(CC(=O)O)C(=O)c1cc(OCCCCCCOc2ccc(-c3ccccc3)cc2)ccc1OCc1ccccc1 | 98 to 100 |
| Cc1nc2c(N)nc3ccccc3c2n1CCOCCNC(=O)Nc1ccccc1 | 193 to 195 |
| CCOP(=O)(Cc1ccc(NC(=O)/C=C/c2cnn(C)c2-c2ccc(F)cc2)cc1)OCC | 208 to 209 |
| Cc1nc(N2CCN(Cc3ccccc3)C2=O)sc1C(=O)NCc1ccncc1 | 96 to 97 |
| O=c1oc(-c2cccc(-c3ccccc3)c2)cc(O)c1Sc1ccccc1CC1CC1 | 88 |
| CCOC(=O)CCC1OC(=O)C(O)=C1c1ccccc1 (stereo not given) | 114 to 116 |
| FC(F)(F)COc1ccnc(Oc2ccc(CCNc3ncnc4nccnc34)cc2)c1 | 166 |
| Cc1ccnc2c1C(O)c1ccccc1-2 (stereo not given) | 154 to 156 |
| COc1cnc(Cl)c(C(=O)O)c1 | 169 to 170 |
| Cc1noc(NC(=O)N2CCN(c3cc(-c4ccc(F)cc4)ncn3)CC2)c1C | 207 to 208 |
| Cc1nc2ncnn2c2c1CCN2C1CCCCCC1 | 197 to 198 |
| CCCc1c(OCc2ccccc2)ccc2c(=O)ccoc12 | 87.5 to 89 |
| Cc1c(N2CCN(Cc3ccccc3)C(C)C2)c(F)cc2c(=O)c(C(=O)O)cn(C3CC3)c12 (stereo not given) | 170 to 171 |
| CS(=O)(=O)N(CCCl)N(C(=O)NCCCCl)S(C)(=O)=O | 85 to 86 |
| O=C(CC1CCCC1)NC[C@H]1CN(c2ccc3c(c2)CCCc2cnn(C(=O)CC4CCCC4)c2-3)C(=O)O1 | 165 to 167 |
| CCC(=O)N(C)c1cccc(-c2ccc3nnc(C)n3n2)c1 | 150 to 152 |
| CCC(NC(=NC#N)Nc1ccc(N(C)C)nc1)c1ccccc1 (stereo not given) | 107 to 113 |
| CC1(c2onc(-c3ccc(O)cc3)c2-c2ccccc2)CC1 | 212 to 214 |
| COC(=O)c1ccc(O)c(C(=O)OC)c1 | 93 to 94 |
| CC(/C=C/c1c(C)sc(C)c1C)=C(F)\C=C\C(C)=C\C(=O)O | 217 to 223 |
| CCn1cc(C(=O)O)c(=O)c2cc(C=NOCC(=O)O)sc21 | 249 to 250 |
| COc1cc2c(cc1OC)CC(NCC(=O)O)C2 | 250 |
| O=C(O)C1Cc2cccc(-c3ccccc3)c2C1 (stereo not given) | 97 to 102 |

| SMILES | melting point [°C] |
| --- | --- |
| Cn1nc(-c2ccccc2)c(Sc2ccccc2)c1-c1ccccc1 | 109 to 110 |
| N#Cc1cnn2c(C(F)(F)F)cc(-c3cccc(F)c3)nc12 | 199 |
| CC(C)(C)OC(=O)n1cccc1-c1ccc(C[C@H](NC(=O)c2c(Cl)cccc2Cl)C(=O)O)cc1 | 98 to 99 |
| COc1cc2ncnc(N3CCN(C(=S)NC4CCOC4=O)CC3)c2cc1OC (stereo not given) | 147 to 148 |
| CCCCN(CCCC)S(=O)(=O)c1cc(C(=O)O)ccc1Cl | 93 to 96 |
| N#Cc1c(N)nc2ccc([N+](=O)[O-])cc2c1NCc1cccs1 | 277 to 280 |
| COC(=O)c1ccccc1C=Nc1ccc(Oc2ccc(C(F)(F)F)cc2Cl)cc1O | 82 to 85 |
| COc1ccc(N2CCN(c3c(C)c(C)c4c(c3C)C(O)(c3ccc(Cl)cc3)C(C)(C)O4)CC2)cc1 (stereo not given) | 153 to 155 |
| COC(=O)c1cc(-c2ccc(C)cc2)c(O)c(C(C)(C)C)c1 | 105 |
| N#CC(=Cc1cc(O)c(O)c(Cl)c1)C(=O)Nc1cccc(Cl)c1 | > 300 |
| Cc1c(O)noc1C(=O)O | 257 to 259 |
| CCC(=O)N(C)C1CCN(Cc2cc3cccnc3n(-c3ccccc3F)c2=O)CC1 | 218 to 220 |
| Cc1ccc([C@@H](O)C=CC(C)(C)C)cc1 | 38 to 40 |
| NCc1cccnc1C1CCN(c2c(F)c(N)c3c(=O)c(C(=O)O)cn(C4CC4)c3c2F)C1 (stereo not given) | 226 to 228 |
| CCCCC(Sc1cc(C(C)(C)C)c(O)c(C(C)(C)C)c1)C(=O)O (stereo not given) | 140 to 142 |
| O=C(O)c1ccc(-c2ccc3cc(CCO)c(C45CC6CC(CC(C6)C4)C5)cc3c2)cc1 | 276 to 278 |
| O=C1CC(c2cccc(-n3ccnc3)c2)=Nc2cc(N3CCC4(CC3)OCCO4)c(-c3ccccc3F)cc2N1 | 225 |
| CCCCCCCCCCCCc1c2c(=O)c3cc(Br)ccc3c2c(CCCCCCCCCCCC)c2c(=O)c3cc(Br)ccc3c12 | 122 to 123 |
| COc1ccc(C2(c3ccc(OC)cc3)CC2(Br)Br)cc1 | 173 to 175 |
| CCCCCC(C)C(C)c1cc(O)c2c3c(c(=O)oc2c1)CSCC3 (stereo not given) | 150 to 152 |
| COc1cc2c(cc1Br)-c1cc3c(n1CC2)C(=O)N(C(C)(C)C)CCC(C)(C)C3 | 175 to 177 |
| CN(C)Cc1ccccc1Oc1cccc(CC(=O)O)c1 | 205 to 208 |
| Nc1cccc(P(=O)(O)O)c1 | 300 |
| COc1ccc(C2(C)CCC(=O)O2)cc1OC (stereo not given) | 71.2 |
| OC1(c2cccnc2N2CCCC2)CCN(CC23CC(c4ccccc42)c2ccccc23)CC1 | 249 to 253 |

| SMILES | melting point [°C] |
| --- | --- |
| Cc1cc2c(cc1C(F)(F)F)NC(=O)CC(c1cccc(-c3nc(CO)sc3C)c1)=N2 | 214 to 217 |
| Cc1ccc(S(=O)(=O)Nc2onc(C)c2Br)cc1 | 169 to 172 |
| COc1cc(OC)c([N+](=O)[O-])cc1[N+](=O)[O-] | 153 to 155 |
| CCOc1cc(NC(C)=O)c(Cl)cc1C(=O)NCC1CN(Cc2ccc(F)cc2)CCO1 (stereo not given) | 161 to 163 |
| COc1ccc(-c2n[nH]c(=O)c3cc(OC)ccc23)cc1 | 245 |
| CC(C)c1nn(-c2ccc(C(F)(F)F)cn2)cc1CCCCOc1cccc(OC(C)(C)C(=O)O)c1 | 81 to 82 |
| Cc1ccc(O)c(Cn2c(NC3CCNC(CCN4CCOCC4)C3)nc3ccc(CCc4ccccc4)cc32)n1 (stereo not given) | 159 |
| Cc1nc2cc(CN3CCN(C(c4ccccc4)c4ccccc4)CC3)ccc2n1C | 206 |
| CCCSc1nc(NC2CC2c2ccccc2)c2nnn(C3CC(C(=O)NC)C(O)C3O)c2n1 (stereo not given) | 165 to 166 |
| COc1cc(C(C)C)c2c(c1)S(=O)(=O)N(COc1cc(C)nn1-c1ccc([N+](=O)[O-])cc1)C2=O | 196 to 198 |
| COc1cc(/C=C/C(=O)Nc2ccccc2C(=O)O)ccc1OCCN1CCOCC1 | 195 to 201 |
| CCCc1cc(=O)oc2cc(OC(=O)C(C)(C)C)cc(OC(=O)C(C)(C)C)c12 | 110 to 112 |
| Nc1ccc(C2CCC(=O)CC2)cc1 | 127 to 128 |
| COc1ccc2c(c1)Sc1ccc(C(C)C(N)=O)cc1C(=O)C2 (stereo not given) | 154 to 155 |
| OC(COCc1ncc[nH]1)c1ccc2sccc2c1 (stereo not given) | 128 to 129 |
| Nc1cccc(-c2ccc(CCN3CCN(C(=O)Oc4ccccc4)CC3)cc2)n1 | 102 to 104 |
| C=CCONC(=O)c1nc(-c2ccc(F)cc2)cc(N)c1Cl | 182 to 185 |
| COc1ccc(CCCN2C=CC=C3C2=Nc2ccc(Cl)cc2S(=O)(=O)N3C)cc1 | 62 to 65 |
| COc1cc2c(cc1O)CCCC(C(=O)N1CCN(C(=O)c3cc(OC)c(OC)c(OC)c3)CC1)=C2 | 198 to 199 |
| COc1ccc(/C(C)=C/C(=O)O)cc1OC | 73 to 74 |
| CN(Cc1cc2c3c(c1)c(=O)c(C(=O)NCc1ccc(Cl)cc1)cn3CC(=O)N2C)C[C@@H](O)c1ccco1 | 119 to 120 |
| CCCCCS(=O)(=O)NC(=O)CCc1ccc(OCCOC)cc1OCC1CC1 | 81.7 to 82.8 |
| COc1cc(C)nc(NC(=O)NS(=O)(=O)c2c(C)nsc2OCC(F)(F)F)n1 | 159 to 161 |
| Cc1ccc2c(c1)nc(/C=C/c1ccccc1)n2-c1ccccn1 | 145 to 146 |
| CC(C)(C)OC(=O)N1CC[C@@H](C(=O)N[C@@H](CC(=O)OCc2ccccc2)C(=O)N[C@@H](Cc2ccccc2)C(=O)OCc2ccccc2)C1 | 84 to 85 |

| SMILES | melting point [°C] |
| --- | --- |
| OC1CSC(Oc2ccnc(-c3cccnc3)c2)C(O)C1O (stereo not given) | 197 |
| COc1cc(O)nc(N)n1 | 106 to 107 |
| CCc1nc(C(F)(F)F)c(CN(C(=O)C2CCCc3c(O)cccc32)c2ccc(C(C)C)nc2)s1 (stereo not given) | 164 |
| CCCCC(=O)Nc1ccc([N+](=O)[O-])cc1Cl | 80 to 95 |
| Cc1cccc(C)c1NC(=O)c1ccc(C(N)=O)cc1 | 246 to 248 |
| C=CCOC(C(Cc1ccc(Cl)cc1)n1cncn1)C1(C)COCOC1 (stereo not given) | 113 to 115 |
| CC(C)N1C(=O)C(=O)N(c2cc(Cl)cc(Cl)c2)S1=O (stereo not given) | 109 |
| O=C(c1ccc(F)cc1)c1ccc2nc(Cl)nc(-c3cccc(Cl)c3)c2c1 | 138 |
| O=C(CC1c2ccccc2CCc2ccccc21)Nc1ccc(C(=O)O)cc1 | 248 to 250 |
| CC(C)(C)OC(=O)c1nc(C2CC2)[nH]c(=O)c1OCc1ccccc1 | 164 |
| CNC1=NN(C(=O)c2cccc(C(F)(F)F)c2)C(C)(C)S1 | 111 to 115 |
| Cc1ccc2nc(-c3ccc(N)c(Br)c3)sc2c1 | 188 to 190 |
| CCCCCC(=O)OCc1nccc(O)n1 | 78 |
| CCc1cccc2c(C(C)=CC(=O)O)cc(OC)c(O)c12 | 114 to 115 |
| COc1nc(C)cnc1NS(=O)(=O)c1cccnc1-c1ccc(C)cc1 | 184 to 185 |
| CCn1c(=O)c2c(nc(/C=C/c3ccc(OC)cc3OC)n2C)n(CC)c1=O | 196 to 197 |
| CC(=O)O[C@H]1CCCNC1=O | 77 to 78 |
| COc1nc(OC)c(C(C)C)c(C(C#N)c2cc(C)cc(Cl)c2)n1 (stereo not given) | 105 to 106 |
| C=CC(=O)OCc1c2ccccc2cc2ccccc12 | 120 to 125 |
| CC1(C)SCc2ccccc2C1=NO | 83 to 84 |
| CCCCCS(=O)(=O)NC(=O)/C=C/c1ccc(OCC2CCCO2)cc1Oc1ncc(C(F)(F)F)cc1Cl (stereo not given) | 126 to 128 |
| O=C(NCCOc1ccc(-c2ccccc2)cc1)N[C@@H](Cc1ccccc1)C(=O)O | 175 |
| Cc1c(OCCCCSCc2ccncc2)ccnc1CNc1cnc2ccccc2c1 | 128 to 129 |
| Cn1c(C(F)(F)F)cc(=O)n(-c2cc(OS(=O)(=O)Cl)c(Cl)cc2F)c1=O | 133 to 135 |
| Nc1ccc(CN2CCSC2)cc1 | 73 to 74 |

Source: a melting point compilation (Tetko et al.; mined from patent text by program, amines drawn as free bases though some values may be those of a salt)
